Assay results taken from patent publication US20250205260A1, “ADJUNCTIVE TREATMENT OF MYCOBACTERIAL DISEASES” (UNIVERSITY OF SOUTHERN CALIFORNIA, priority 2022, published 2025).
In brackets after ≈: the same amount, converted by molar mass. Like-named read-outs stand apart in the source and are kept apart here.

Legend:
M. tuberculosis [1] = assay: M. tuberculosis planktonic growth inhibition; format: cell-based, Mycobacterium tuberculosis
M. tuberculosis biofilm = M. tuberculosis biofilm formation inhibition (crystal violet staining); format: cell-based, Mycobacterium tuberculosis; conditions: for overall activity against M. tuberculosis: biofilm inhibition, normal growth inhibition and antibiotic synergism assays, preliminary results
Method: FIG. 1A-D. Anti-M. tuberculosis biofilm activity of 6-treAz (6-azido-6-deoxy-D-trehalose). The effects of various concentrations of 6-treAz treatment on M. tuberculosis biofilms were monitored by crystal violet (CV) staining assay (A and B). […] The effect of 6-treAz on TreS mediated maltose production. Y-axis is the amount of maltose produced (D).
Planktonic growth and biofilm assays. Evaluation of planktonic growth and biofilm formation inhibition for M. smegmatis was carried out as previously reported for other trehalose analogues (Carbohydr. Res. 2017, 450, 60-66). Evaluation of planktonic growth and biofilm formation inhibition for M. tuberculosis was carried out as previously reported for 6-TreAz (Nat. Commun., 2019, 2928-2928).

M. smegmatis biofilm [2] = assay: M. smegmatis biofilm formation inhibition; format: cell-based, Mycobacterium smegmatis
[3] = test system: H37Rv lab strain (M. tuberculosis); format: cell-based, Mycobacterium tuberculosis; conditions: for IC95 2-treNH2: antibiotic in combination with 2-treNH2; for IC95 4-treNH2: antibiotic in combination with 4-treNH2; for IC95 6-treNH2: antibiotic in combination with 6-treNH2
M. smegmatis = conditions: cited from earlier work
M. tuberculosis [4] = conditions: cited from earlier work
M. smegmatis biofilm [5] = conditions: cited from earlier work
[6] = molecular target: TreS (trehalose synthase) (Mycobacterium tuberculosis, UniProt P9WQ19); assay: In vitro TreS assay (maltose production, LC-MS); format: biochemical, M. tuberculosis; conditions: 100 μM compound, in vitro TreS enzyme reaction
Chain of TreS (trehalose synthase) (P9WQ19 whole entry, looked up): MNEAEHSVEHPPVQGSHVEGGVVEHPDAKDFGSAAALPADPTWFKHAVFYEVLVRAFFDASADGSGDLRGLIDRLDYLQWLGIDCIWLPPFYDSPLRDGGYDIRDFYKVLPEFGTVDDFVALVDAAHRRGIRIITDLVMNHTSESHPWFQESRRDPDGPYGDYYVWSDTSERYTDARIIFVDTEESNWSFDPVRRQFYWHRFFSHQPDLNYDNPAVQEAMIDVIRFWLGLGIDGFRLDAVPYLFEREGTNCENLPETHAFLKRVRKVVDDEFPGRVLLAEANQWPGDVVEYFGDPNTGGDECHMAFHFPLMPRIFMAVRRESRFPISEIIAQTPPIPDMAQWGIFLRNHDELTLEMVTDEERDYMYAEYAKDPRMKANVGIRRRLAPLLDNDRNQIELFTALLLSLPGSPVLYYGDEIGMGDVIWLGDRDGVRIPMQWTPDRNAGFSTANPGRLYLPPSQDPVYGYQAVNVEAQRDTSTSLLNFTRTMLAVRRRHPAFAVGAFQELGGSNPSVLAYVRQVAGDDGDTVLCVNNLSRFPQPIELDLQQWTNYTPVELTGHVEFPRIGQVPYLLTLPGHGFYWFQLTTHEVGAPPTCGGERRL
Method: In vitro TreS assay. TreS activity was measured using a 100 μL in vitro enzyme reaction containing 40 mM MOPS (pH 7.0), 10 mM trehalose, and 20 ng of purified TreS enzyme in the presence or absence of 6-treAz or validamycin A (a known TreS inhibitor). The reaction was initiated by adding TreS enzyme, incubated at 37° C., and then quenched by heating and adding acetonitrile containing 0.2% formic acid. After centrifugation, supernatants were used for LC-MS to quantify maltose product.

[7] = test system: M. tuberculosis trehalose catalytic shift (metabolome); assay: Metabolomics profiling / trehalose catalytic shift; format: cell-based, Mycobacterium tuberculosis; conditions: M. tuberculosis biofilm, trehalose accumulation, depletion of maltose, glucose-P, sedoheptulose-P
M. aurum = conditions: cited from earlier work
[8] = M. tuberculosis IC95 shift assay

## N[C@@H]1[C@H](O)[C@@H](O)[C@@H](O[C@H]2O[C@H](CO)[C@@H](O)[C@H](O)[C@H]2O)O[C@@H]1CO [4-epi-TreNH2, (2R,3R,4S,5S,6R)-2-(((2R,3R,4S,5R,6S)-5-amino-3,4-dihydroxy-6-(hydroxymethyl)tetrahydro-2H-pyran-2-yl)oxy)-6-(hydroxymethyl)tetrahydro-2H-pyran-3,4,5-triol]
M. tuberculosis [1]
  inhibition of M. tuberculosis planktonic growth: no inhibitory effects
M. tuberculosis biofilm
  inhibition of M. tuberculosis biofilm formation: do not
M. smegmatis biofilm [2]
  inhibition of M. smegmatis biofilm formation: no inhibitory effects

## N[C@@H]1[C@@H](O)[C@@H](O[C@H]2O[C@H](CO)[C@@H](O)[C@H](O)[C@H]2O)O[C@H](CO)[C@H]1O [3-TreNH2, (2R,3R,4S,5S,6R)-2-(((2R,3R,4S,5S,6R)-4-amino-3,5-dihydroxy-6-(hydroxymethyl)tetrahydro-2H-pyran-2-yl)oxy)-6-(hydroxymethyl)tetrahydro-2H-pyran-3,4,5-triol]
M. tuberculosis biofilm
  inhibition of M. tuberculosis biofilm formation: moderate inhibitor

## [N-]=[N+]=N[C@@H]1[C@@H](O[C@H]2O[C@H](CO)[C@@H](O)[C@H](O)[C@H]2O)O[C@H](CO)[C@@H](O)[C@@H]1O [2-epi-TreAz, (2R,3R,4S,5S,6R)-2-(((2R,3S,4R,5S,6R)-3-azido-4,5-dihydroxy-6-(hydroxymethyl)tetrahydro-2H-pyran-2-yl)oxy)-6-(hydroxymethyl)tetrahydro-2H-pyran-3,4,5-triol]
M. tuberculosis [1]
  inhibition of M. tuberculosis planktonic growth: can inhibit
M. tuberculosis [1]; at 1 mM
  inhibition of M. tuberculosis planktonic growth: completely blocks
M. tuberculosis [1]; listed as Epi-2-TreAz
  inhibition of M. tuberculosis planktonic growth: completely inhibits
M. tuberculosis biofilm
  inhibition of M. tuberculosis biofilm formation: can inhibit
  overall activity against M. tuberculosis: most potent
M. tuberculosis biofilm; at 1 mM
  inhibition of M. tuberculosis biofilm formation: completely blocks
M. tuberculosis biofilm; listed as Epi-2-TreAz
  inhibition of M. tuberculosis biofilm formation: completely inhibits
M. smegmatis biofilm [2]
  inhibition of M. smegmatis biofilm formation: selectively inhibits
M. smegmatis biofilm [2]; at 1 mM
  inhibition of M. smegmatis biofilm formation: selectively blocks

## COc1nc2ccc(Br)cc2cc1[C@@H](c1ccccc1)[C@@](O)(CCN(C)C)c1cccc2ccccc12 [BDQ, bedaquiline]
[3]
  IC95 WT: 0.59 µg/mL (≈ 1.06 µM)
[3]; H37Rv
  IC95 2-treNH2: 0.78 µg/mL
  IC95 4-treNH2: 0.39 µg/mL
  IC95 6-treNH2: 0.57 µg/mL

## [N-]=[N+]=NC[C@H]1O[C@H](O[C@H]2O[C@H](CO)[C@@H](O)[C@H](O)[C@H]2O)[C@H](O)[C@@H](O)[C@@H]1O [6-TreAz, (2R,3S,4S,5R,6R)-2-(azidomethyl)-6-(((2R,3R,4S,5S,6R)-3,4,5-trihydroxy-6-(hydroxymethyl)tetrahydro-2H-pyran-2-yl)oxy)tetrahydro-2H-pyran-3,4,5-triol]
M. tuberculosis [1]
  inhibition of M. tuberculosis planktonic growth: no discernible effects
M. smegmatis
  inhibition of M. smegmatis planktonic growth (previous research): inhibit growth
M. tuberculosis biofilm
  inhibition of M. tuberculosis biofilm formation: selective inhibitory activity
M. tuberculosis biofilm; WT biofilm culture
  concentration that significantly interfered with M. tuberculosis biofilm formation: at least 100 M
M. tuberculosis [4]
  inhibition of M. tuberculosis planktonic growth (previous research): inhibit growth
M. smegmatis biofilm [5]
  inhibition of M. smegmatis biofilm formation (previously known): known to inhibit
[6]
  TreS mediated maltose production: abolished
[7]
  inhibition of the trehalose catalytic shift: blocked
[7]; listed as 6-treAz
  inhibition of the trehalose catalytic shift: dose-dependent inhibition
M. aurum
  inhibition of M. aurum growth (previous research): inhibit growth

## N[C@H]1[C@H](O)[C@@H](O)[C@@H](O[C@H]2O[C@H](CO)[C@@H](O)[C@H](O)[C@H]2O)O[C@@H]1CO [4-TreNH2, (2R,3R,4S,5S,6R)-2-(((2R,3R,4S,5S,6S)-5-amino-3,4-dihydroxy-6-(hydroxymethyl)tetrahydro-2H-pyran-2-yl)oxy)-6-(hydroxymethyl)tetrahydro-2H-pyran-3,4,5-triol]
M. tuberculosis [1]
  inhibition of M. tuberculosis planktonic growth: inhibits
M. smegmatis
  inhibition of M. smegmatis planktonic growth (previous research): did not exhibit inhibition
M. tuberculosis biofilm
  inhibition of M. tuberculosis biofilm formation: inhibit
M. smegmatis biofilm [2]
  inhibition of M. smegmatis biofilm formation: did not exhibit activity

## [N-]=[N+]=N[C@H]1[C@H](O)[C@@H](O)[C@@H](O[C@H]2O[C@H](CO)[C@@H](O)[C@H](O)[C@H]2O)O[C@@H]1CO [4-TreAz, (2R,3R,4S,5S,6R)-2-(((2R,3R,4S,5S,6S)-5-azido-3,4-dihydroxy-6-(hydroxymethyl)tetrahydro-2H-pyran-2-yl)oxy)-6-(hydroxymethyl)tetrahydro-2H-pyran-3,4,5-triol]
M. smegmatis
  inhibition of M. smegmatis planktonic growth (previous research): did not exhibit inhibition
M. tuberculosis biofilm
  overall activity against M. tuberculosis: did not show activity
M. smegmatis biofilm [2]; biofilm inhibition, normal growth inhibition and antibiotic synergism assays
  overall activity against M. smegmatis: did not show activity

## NNC(=O)c1ccncc1 [INH, isoniazid]
[3]
  IC95 WT: 0.28 µg/mL (≈ 2.04 µM)
[3]; H37Rv
  IC95 2-treNH2: 0.21 µg/mL
  IC95 4-treNH2: 0.44 µg/mL
  IC95 6-treNH2: 0.33 µg/mL

## N[C@@H]1[C@@H](O[C@H]2O[C@H](CO)[C@@H](O)[C@H](O)[C@H]2O)O[C@H](CO)[C@@H](O)[C@@H]1O [2-epi-TreNH2, (2R,3R,4S,5S,6R)-2-(((2R,3S,4R,5S,6R)-3-amino-4,5-dihydroxy-6-(hydroxymethyl)tetrahydro-2H-pyran-2-yl)oxy)-6-(hydroxymethyl)tetrahydro-2H-pyran-3,4,5-triol]
M. tuberculosis [1]
  inhibition of M. tuberculosis planktonic growth: no inhibitory effects
M. tuberculosis biofilm
  inhibition of M. tuberculosis biofilm formation: do not
M. smegmatis biofilm [2]
  inhibition of M. smegmatis biofilm formation: no inhibitory effects

## N[C@H]1[C@@H](O[C@H]2O[C@H](CO)[C@@H](O)[C@H](O)[C@H]2O)O[C@H](CO)[C@@H](O)[C@@H]1O [2-TreNH2, (2R,3R,4S,5S,6R)-2-(((2R,3R,4R,5S,6R)-3-amino-4,5-dihydroxy-6-(hydroxymethyl)tetrahydro-2H-pyran-2-yl)oxy)-6-(hydroxymethyl)tetrahydro-2H-pyran-3,4,5-triol]
M. tuberculosis biofilm
  inhibition of M. tuberculosis biofilm formation: inhibit
M. tuberculosis [4]
  inhibition of M. tuberculosis planktonic growth (previous research): exhibited inhibition
M. smegmatis biofilm [2]
  inhibition of M. smegmatis biofilm formation: inhibit
[3]; H37Rv, INH, RIF or BDQ, […]
  antimycobacterial synergy with TB antibiotics: antimicrobial synergy against H37Rv level similar to that of ΔtreS
[3]; [8]
  effect of co-treatment on IC95 values of isoniazid (INH) or rifampicin (RIF): significantly reduced
  reduction of IC95 value of bedaquiline (BDQ) by co-treatment: not

## NC[C@H]1O[C@H](O[C@H]2O[C@H](CO)[C@@H](O)[C@H](O)[C@H]2O)[C@H](O)[C@@H](O)[C@@H]1O [6-TreNH2, (2R,3S,4S,5R,6R)-2-(aminomethyl)-6-(((2R,3R,4S,5S,6R)-3,4,5-trihydroxy-6-(hydroxymethyl)tetrahydro-2H-pyran-2-yl)oxy)tetrahydro-2H-pyran-3,4,5-triol]
M. tuberculosis [1]
  inhibition of M. tuberculosis planktonic growth: no inhibitory effect
M. tuberculosis biofilm
  inhibition of M. tuberculosis biofilm formation: no inhibitory effect
M. tuberculosis [4]
  inhibition of M. tuberculosis planktonic growth (previous research): did not exhibit inhibition

## [N-]=[N+]=N[C@H]1[C@@H](O[C@H]2O[C@H](CO)[C@@H](O)[C@H](O)[C@H]2O)O[C@H](CO)[C@@H](O)[C@@H]1O [2-TreAz, (2R,3R,4S,5S,6R)-2-(((2R,3R,4R,5S,6R)-3-azido-4,5-dihydroxy-6-(hydroxymethyl)tetrahydro-2H-pyran-2-yl)oxy)-6-(hydroxymethyl)tetrahydro-2H-pyran-3,4,5-triol]
M. smegmatis
  inhibition of M. smegmatis planktonic growth (previous research): exhibited planktonic growth inhibition
M. tuberculosis biofilm
  overall activity against M. tuberculosis: top candidate

## [N-]=[N+]=N[C@@H]1[C@H](O)[C@@H](O)[C@@H](O[C@H]2O[C@H](CO)[C@@H](O)[C@H](O)[C@H]2O)O[C@@H]1CO [4-epi-TreAz, (2R,3R,4S,5S,6R)-2-(((2R,3R,4S,5R,6S)-5-azido-3,4-dihydroxy-6-(hydroxymethyl)tetrahydro-2H-pyran-2-yl)oxy)-6-(hydroxymethyl)tetrahydro-2H-pyran-3,4,5-triol]
M. tuberculosis [1]
  inhibition of M. tuberculosis planktonic growth: no inhibitory effects
M. tuberculosis biofilm
  inhibition of M. tuberculosis biofilm formation: do not
M. smegmatis biofilm [2]
  inhibition of M. smegmatis biofilm formation: no inhibitory effects

## [N-]=[N+]=N[C@@H]1[C@@H](O)[C@@H](O[C@H]2O[C@H](CO)[C@@H](O)[C@H](O)[C@H]2O)O[C@H](CO)[C@H]1O [3-TreAz, (2R,3R,4S,5S,6R)-2-(((2R,3R,4S,5S,6R)-4-azido-3,5-dihydroxy-6-(hydroxymethyl)tetrahydro-2H-pyran-2-yl)oxy)-6-(hydroxymethyl)tetrahydro-2H-pyran-3,4,5-triol]
M. smegmatis
  inhibition of M. smegmatis planktonic growth (previous research): did not exhibit inhibition

## CO[C@H]1/C=C/O[C@@]2(C)Oc3c(C)c(O)c4c(O)c(c(/C=N/N5CCN(C)CC5)c(O)c4c3C2=O)NC(=O)/C(C)=C\C=C\[C@H](C)[C@H](O)[C@@H](C)[C@@H](O)[C@@H](C)[C@H](OC(C)=O)[C@@H]1C [RIF, rifampicin]
[3]
  IC95 WT: 0.18 µg/mL (≈ 0.219 µM)
[3]; H37Rv
  IC95 2-treNH2: 0.09 µg/mL
  IC95 4-treNH2: 0.14 µg/mL
  IC95 6-treNH2: 0.24 µg/mL
